In ChEMBL document CHEMBL1146040, “Lactones from a brown alga endophytic fungus (No. ZZF36) from the South China Sea and their antimicrobial activities” (2006):
Converted amounts (≈) assume the structure as drawn.

How the values were obtained:
[1] = test system: Salmonella enteritidis; test: Antibacterial activity against Salmonella enteritidis ATCC 13076; assay type: functional, Salmonella enterica subsp. enterica serovar Enteritidis; conditions: Salmonella enterica
[2] = test system: Staphylococcus aureus; test: Antibacterial activity against Staphylococcus aureus ATCC 27154; assay type: functional
[3] = test system: Fusarium oxysporum; test: Antifungal activity against Fusarium oxysporum f.sp.cubense; assay type: functional
[4] = test system: Escherichia coli; test: Antibacterial activity against Escherichia coli ATCC 25922; assay type: functional
[5] = test system: Bacillus subtilis; test: Antibacterial activity against Bacillus subtilis ATCC 6633; assay type: functional
[6] = test system: Candida albicans; test: Antifungal activity against Candida albicans ATCC 10231; assay type: functional

Row | Compound | MIC [1] | MIC [2] | MIC [3] | MIC [4] | MIC [5] | MIC [6]
1 | CC1CC(O)CCCCCc2cc(O)cc(O)c2C(=O)O1 (configuration not stated) | > 100 µg/mL | 100 µg/mL (≈ 340 µM) | > 100 µg/mL | > 100 µg/mL | > 100 µg/mL | > 100 µg/mL
2 | CC1CCCCCCCc2cc(O)cc(O)c2C(=O)O1 (configuration not stated) | 12.5 µg/mL (≈ 44.9 µM) | 6.25 µg/mL (≈ 22.5 µM) | 50 µg/mL (≈ 180 µM) | > 100 µg/mL | 12.5 µg/mL (≈ 44.9 µM) | 100 µg/mL (≈ 359 µM)
3 | NYSTATIN |  |  | 3.12 µg/mL |  |  | 1.56 µg/mL
4 | CC1(C)S[C@@H]2[C@H](NC(=O)[C@H](N)c3ccccc3)C(=O)N2[C@H]1C(=O)O [AMPICILLIN] | 50 µg/mL (≈ 143 µM) | > 100 µg/mL |  | 6.25 µg/mL (≈ 17.9 µM) | 100 µg/mL (≈ 286 µM) | 
5 | COc1cc(O)cc2c1C(=O)O[C@@H](C)CCCCCCC2 [LASIODIPLODIN] | > 100 µg/mL | 25 µg/mL (≈ 85.5 µM) | 100 µg/mL (≈ 342 µM) | > 100 µg/mL | 50 µg/mL (≈ 171 µM) | > 100 µg/mL
6 | COc1c(Br)c(O)c(Br)c2c1C(=O)OC(C)CCCCCCC2 (configuration not stated) | > 100 µg/mL | > 100 µg/mL | 12.5 µg/mL (≈ 27.8 µM) | > 100 µg/mL | 6.25 µg/mL (≈ 13.9 µM) | > 100 µg/mL
7 | CC1CCC(=O)CCCCc2cc(O)cc(O)c2C(=O)O1 (configuration not stated) | > 100 µg/mL | > 100 µg/mL | > 100 µg/mL | > 100 µg/mL | > 100 µg/mL | > 100 µg/mL
8 | COc1cc(OC(C)=O)cc2c1C(=O)OC(C)CCCCCCC2 (configuration not stated) | > 100 µg/mL | > 100 µg/mL | > 100 µg/mL | > 100 µg/mL | > 100 µg/mL | > 100 µg/mL
